What all share (format): cell-based
Experiment [1] has as its system Aβ42. Nature of the experiment: Method 2: Aβ42 Alphalisa in supernatant of SKNBE2 cells carrying APP 695-wild type (Table 7c). The settings on record: Method 2, Alphalisa, overnight incubation. As for the experimental part:
(§1) Screening was carried out using SKNBE2 cells carrying the APP 695-wild type, grown in Dulbecco's Modified Eagle's Medium/Nutrient mixture F-12 (DMEM/NUT-mix F-12) (HAM) provided by Invitrogen (cat no. 10371-029) containing 5% Serum/Fe supplemented with 1% non-essential amino acids, 1-glutamine 2 mM, Hepes 15 mM, penicillin 50 U/ml (units/ml) en streptomycin 50 μg/ml. Cells were grown to near confluency.
(§2) The screening was performed using a modification of the assay as described in Citron et al (1997) Nature Medicine 3: 67. Briefly, cells were plated in a 384-well plate at 10^4 cells/well in Ultraculture (Lonza, BE12-725F) supplemented with 1% glutamine (Invitrogen, 25030-024), 1% non-essential amino acid (NEAA), penicillin 50 U/ml en streptomycin 50 μg/ml in the presence of test compound at different test concentrations. The cell/compound mixture was incubated overnight at 37° C., 5% CO2. The next day the media were assayed by two sandwich immuno-assays, for Aβ42 and Aβtotal.
(§3) Aβtotal and Aβ42 concentrations were quantified in the cell supernatant using the Aphalisa technology (Perkin Elmer). Alphalisa is a sandwich assay using biotinylated antibody attached to streptavidin coated donorbeads and antibody conjugated to acceptor beads. In the presence of antigen, the beads come into close proximity. The excitation of the donor beads provokes the release of singlet oxygen molecules that trigger a cascade of energy transfer in the acceptor beads, resulting in light emission. To quantify the amount of Aβ42 in the cell supernatant, monoclonal antibody specific to the C-terminus of Aβ42 (JRF/cAβ42/26) was coupled to the receptor beads and biotinylated antibody specific to the N-terminus of Aβ (JRF/AβN/25) was used to react with the donor beads. To quantify the amount of Aβtotal in the cell supernatant, monoclonal antibody specific to the N-terminus of Aβ (JRF/AβN/25) was coupled to the receptor beads and biotinylated antibody specific to the mid region of Aβ (biotinylated 4G8) was used to react with the donor beads.
(§4) To obtain the values reported in Table 7c, the data were calculated as percentage of the maximum amount of amyloid Beta 42 measured in the absence of the test compound. The sigmoidal dose response curves were analyzed using non-linear regression analysis with percentage of the control plotted against the log concentration of the compound. A 4-parameter equation was used to determine the IC50.
In general terms: Alpha assays give light when donor and acceptor beads are brought close together.

For experiment [2], the system named is Aβtotal. Nature of the experiment: Method 2: Aβtotal Alphalisa in supernatant of SKNBE2 cells carrying APP 695-wild type (Table 7c). The settings on record: Method 2, Alphalisa, overnight incubation. As for the experimental part: as §1, §2, §3, §4
Experiment [3] concerns Aβ42. Nature of the experiment: Method 1: Aβ42 sandwich ELISA in supernatant of SKNBE2 cells carrying APP 695-wild type (Tables 7a, 7b). The settings on record: Table 7b, averaged IC50, non-linear regression of percentage of control vs log concentration, 4-parameter equation. The procedure: (§5) Screening was carried out using SKNBE2 cells carrying the APP 695-wild type, grown in Dulbecco's Modified Eagle's Medium/Nutrient mixture F-12 (DMEM/NUT-mix F-12) (HAM) provided by Gibco (cat no. 31330-38) containing 5% Serum/Fe supplemented with 1% non-essential amino acids. Cells were grown to near confluency.
(§6) The screening was performed using the assay as described in Citron et al (1997) Nature Medicine 3: 67. Briefly, cells were plated in a 96-well plate at about 10^5 cells/ml one day prior to addition of compounds. Compounds were added to the cells in Ultraculture (Lonza, BE12-725F) supplemented with 1% glutamine (Invitrogen, 25030-024) for 18 Hours. The media were assayed by two sandwich ELISAs, for Aβ42 and Aβtotal. Toxicity of the compounds was assayed by WST-1 cell proliferation reagent (Roche, 1 644 807) according to the manufacturer's protocol.
To quantify the amount of Aβ42 in the cell supernatant, commercially available Enzyme-Linked-Immunosorbent-Assay (ELISA) kits were used (Innotest® β-Amyloid(1-42), Innogenetics N.V., Ghent, Belgium). The Aβ42 ELISA was performed essentially according to the manufacturer's protocol. Briefly, the standards (dilutions of synthetic Aβ1-42) were prepared in polypropylene Eppendorf with final concentrations of 8000 down to 3.9 pg/ml (½ dilution step). Samples, standards and blanks (100 μl) were added to the anti-Aβ42-coated plate supplied with the kit (the capture antibody selectively recognizes the C-terminal end of the antigen). The plate was allowed to incubate 3 H at 25° C. in order to allow formation of the antibody-amyloid complex. Following this incubation and subsequent wash steps a selective anti-Aβ-antibody conjugate (biotinylated 3D6) was added and incubated for a minimum of 1 Hour in order to allow formation of the antibody-Amyloid-antibody-complex. After incubation and appropriate wash steps, a Streptavidine-Peroxidase-Conjugate was added, followed 30 minutes later by an addition of 3,3′,5,5′-tetramethylbenzidine (TMB)/peroxide mixture, resulting in the conversion of the substrate into a coloured product. This reaction was stopped by the addition of sulfuric acid (0.9 N) and the colour intensity was measured by means of photometry with an ELISA-reader with a 450 nm filter.
(§7) To obtain the values reported in Table 7a, the sigmoidal dose response curves were analysed by computerised curve-fitting, with percent of inhibition plotted against compound concentration. A 4-parameter equation (model 205) in XLfit was used to determine the IC50. The top and the bottom of the curve were fixed to 100 and 0, respectively, and the hill slope was fixed to 1. The IC50 represents the concentration of a compound that is required for inhibiting a biological effect by 50% (Here, it is the concentration where Aβ peptide level is reduced by 50%).
(§8) To obtain the values reported in Table 7b, the data were calculated as percentage of the maximum amount of amyloid Beta 42 measured in the absence of the test compound. The sigmoidal dose response curves were analyzed using non-linear regression analysis with percentage of the control plotted against the log concentration of the compound. A 4-parameter equation was used to determine the IC50. The values reported in Table 7b are averaged IC50 values.
Background: ELISA stands for enzyme-linked immunosorbent assay.

For experiment [4], the system named is Aβtotal. Nature of the experiment: Method 1: Aβtotal sandwich ELISA in supernatant of SKNBE2 cells carrying APP 695-wild type (Tables 7a, 7b). The settings on record: Table 7b, averaged IC50, non-linear regression of percentage of control vs log concentration, 4-parameter equation. The procedure:
as §5, §6
To quantify the amount of Aβtotal in the cell supernatant, samples and standards were added to a 6E10-coated plate. The plate was allowed to incubate overnight at 4° C. in order to allow formation of the antibody-amyloid complex. Following this incubation and subsequent wash steps a selective anti-Aβ-antibody conjugate (biotinylated 4G8) was added and incubated for a minimum of 1 Hour in order to allow formation of the antibody-Amyloid-antibody-complex. After incubation and appropriate wash steps, a Streptavidine-Peroxidase-Conjugate was added, followed 30 minutes later by an addition of Quanta Blu fluorogenic peroxidase substrate according to the manufacturer's instructions (Pierce Corp., Rockford, Ill.).
as §7, §8

The values that follow come from patent US8946426B2, “Substituted bicyclic heterocyclic compounds as gamma secretase modulators” (Janssen Pharmaceuticals, Inc., priority 2009, dated 2015).

Regarding `COc1nc(Nc2cccc3c2nc(-c2ccc(F)cc2)n3C)ccc1-c1cnn(C)c1` [Compound 68], the half-maximal inhibitory concentration (IC50) (commonly the concentration that gives 50% inhibition) in experiment [1] was 18 nM; in experiment [2], above 10000 nM.
Turning to `COc1nc(Nc2cccc3c2nc(-c2ccc(F)cc2)n3C(C)C)ccc1-c1cnn(C)c1` [Compound 69], the half-inhibitory concentration (IC50) in experiment [1] was 22 nM; in experiment [2], above 10000 nM.
On the same counts, the results for `COc1cc(Nc2cccc3c2nc(-c2ccc(F)cc2)n3C)ccc1-c1cnn(C)n1` [Compound 73] are 141 nM and 5620 nM.
For the compound `COc1cc(Nc2cccc3c2nc(-c2ccc(F)cc2)n3C)ccc1-c1cn(C)nn1` [Compound 74], the results for the IC50 in experiment [1] and in experiment [2] were 7410 nM and 4470 nM, respectively.
`Cc1ncoc1-c1ccc(Nc2nccc3c2nc(-c2ccccc2Cl)n3C)cn1` [Compound 117]: the 50% inhibitory concentration (IC50) was 724 nM in experiment [3] and above 10000 nM in experiment [4].
For `COc1cc(Nc2cc(CN)cc3c2nc(-c2ccc(F)cc2)n3C)ccc1-c1ocnc1C` [Compound 120], the half-maximal inhibitory concentration (IC50) is 324 nM in experiment [3] (Homo sapiens, SKNBE2) and above 3000 nM in experiment [4] (Homo sapiens, SKNBE2).
With `COc1cccc(-c2nc3c(Nc4ccc(-c5ocnc5C)c(OC)c4)nc(C)cc3n2C)c1` [Compound 121], the results for the IC50 in experiment [3] and in experiment [4] were 20 nM and above 3000 nM, respectively.
The corresponding values for `COc1cccc(-c2nc3c(Nc4ccc(-c5ocnc5C)c(OC)c4)cc(C#N)cc3n2C)c1` [Compound 122] are 38 nM and above 3000 nM.
In the case of `COc1cc(Nc2cc(C#N)cc3c2nc(-c2ccc(F)cc2)n3C)ccc1-c1ocnc1C` [Compound 123], the IC50 in experiment [3] was 26 nM; in experiment [4], above 1000 nM.
As to `Cc1ncoc1-c1ccc(Nc2cccc3c2nc(-c2ccc(F)cc2)n3C)cc1` [Compound 124], the IC50 in experiment [3] is 51 nM; in experiment [4], above 3000 nM.
`COc1cc(Nc2cc(C(F)(F)F)cc3c2nc(CCC(F)(F)F)n3C)ccc1-c1ocnc1C` [Compound 126]: the IC50 is 214 nM in experiment [3] and 741 nM in experiment [1].
For the compound `COc1cc(Nc2cc(C(F)(F)F)cn3c(C)c(C)nc23)ccc1-c1ocnc1C` [Compound 142], the IC50 was 468 nM in experiment [3] and above 10000 nM in experiment [4].
`COc1cc(Nc2cc(C(F)(F)F)cn3cc(C(=O)N(C)C)nc23)ccc1-c1ocnc1C` [Compound 143]: the IC50 is 9770 nM in experiment [3] and above 30000 nM in experiment [4].
On the same counts, the results for `COc1cc(Nc2cccn3c(C)c(C)nc23)ccc1-c1ocnc1C` [Compound 144] are 468 nM and 13800 nM.
For `COc1cc(Nc2cc(C#N)cn3cc(-c4ccc(F)cc4C)nc23)ccc1-c1ocnc1C` [Compound 146], the figures for the IC50 in experiment [3] and in experiment [4] were 355 nM and above 30000 nM, respectively.
Consider `COc1cc(Nc2cc(F)cn3cc(-c4ccc(F)cc4C)nc23)ccc1-c1ocnc1C` [Compound 147], for which the results for the half-maximal inhibitory concentration (IC50) in experiment [3] and in experiment [1] were 85 nM and 468 nM, respectively.
For the compound `COc1cc(Nc2cc(C)cn3cc(-c4ccc(F)cc4C)nc23)ccc1-c1ocnc1C` [Compound 149], the IC50 was 47 nM in experiment [3] and above 3000 nM in experiment [4].
On the same counts, the results for `COc1cc(Nc2cc(CN)cn3cc(-c4ccc(F)cc4C)nc23)ccc1-c1ocnc1C` [Compound 150] are 437 nM and 8130 nM.
The corresponding values for `COc1cccc(-c2nc3c(Nc4ccc(-c5ocnc5C)cc4)cccn3c2C)c1` [Compound 152] are 23 nM and above 3000 nM.
On the same counts, the results for `COc1cc(Nc2nc(C3CC3)cn3cc(C)nc23)ccc1-c1ocnc1C` [Compound 153] are 1320 nM and above 3000 nM.
As to `Cc1ncoc1-c1ccc(Nc2cccn3cc(C4CCOCC4)nc23)cn1` [Compound 154], the results for the half-maximal inhibitory concentration (IC50) in experiment [3] and in experiment [4] were 2040 nM and above 3000 nM, respectively.
The corresponding values for `COc1cc(Nc2cccn3cc(C4CCOCC4)nc23)ccc1-c1ocnc1C` [Compound 155] are 389 nM and 14800 nM.
Turning to `Cc1ncoc1-c1ccc(Nc2cccn3cc(C4CC4)nc23)cn1` [Compound 160], the IC50 is 138 nM in experiment [3] and above 3000 nM in experiment [4].
Turning to `Cc1ncc(-c2ccc(Nc3cccn4cc(C5CC5)nc34)cc2)o1` [Compound 166], the results for the IC50 in experiment [3] and in experiment [4] were 741 nM and above 3000 nM, respectively.
Take `COCCCc1c(-c2ccccc2C(F)(F)F)nc2c(Nc3ccc(-c4cnc(C)o4)c(OC)c3)cccn12` [Compound 169]: the half-maximal inhibitory concentration (IC50) in experiment [3] (Homo sapiens, SKNBE2) is 45 nM; in experiment [4] (Homo sapiens, SKNBE2), above 3000 nM.
Consider `Cc1ncc(-c2ccc(Nc3cc(F)cn4cc(-c5ccc(F)cc5C)nc34)cc2)o1` [Compound 176], for which the results for the IC50 in experiment [3] and in experiment [4] were 41 nM and above 3000 nM, respectively.
In the case of `C=C(C)c1c(-c2ccc(F)cc2)nc2c(Nc3ccc(-c4cnc(C)o4)cc3)cccn12` [Compound 177], the half-maximal inhibitory concentration (IC50) was 105 nM in experiment [3] (Homo sapiens, SKNBE2) and above 3000 nM in experiment [4] (Homo sapiens, SKNBE2).
As for `Cc1ncc(-c2ccc(Nc3cc(F)cn4cc(CC(C)C)nc34)cc2)o1` [Compound 178], the IC50 is 85 nM in experiment [3] and above 3000 nM in experiment [4].
On the same counts, the results for `Cc1nc2c(Nc3ccc(-c4cnc(C(C)C)o4)cc3)cccn2c1C` [Compound 180] are above 3000 nM and above 3000 nM.
The corresponding values for `COc1cc(Nc2cc(C3CC3)nc3c2nc(-c2ccc(F)cc2)n3C)ccc1-c1cnc(C)o1` [Compound 192] are 13 nM and above 3000 nM.
With `COc1cc(Nc2cc(C)nc3c2nc(-c2ccc(F)cc2)n3C)ccc1-c1cnc(C)o1` [Compound 193], the results for the half-maximal inhibitory concentration (IC50) in experiment [3] and in experiment [4] were 19 nM and above 3000 nM, respectively.
`COc1cc(Nc2cc(C(F)(F)F)nn3cc(C)nc23)ccc1-c1ocnc1C` [Compound 196]: the IC50 in experiment [3] is 676 nM; in experiment [4], above 3000 nM.
The corresponding values for `COc1cc(Nc2cncc3c2nc(-c2ccc(F)cc2)n3C)ccc1-c1ocnc1C` [Compound 199] are 240 nM and above 30000 nM.
`Cc1ncc(-c2ccc(Nc3cncc4c3nc(-c3ccc(F)cc3)n4C)cn2)o1` [Compound 200]: the IC50 in experiment [3] was 295 nM; in experiment [4], above 3000 nM.
